Experimental data: patent US11198710B2, “Transgenic plant having herbicide resistance” (priority 2016, dated 2021)

Columns and labels:
Experiment in all cases: Pyroxasulfone metabolizing activity based on fatty acid content in cultured rice cells
Assay type in all cases: cell-based, maize
ZmB6T8R4 = conditions: cultured rice cells with ZmB6T8R4 gene; 10^−7M or 10^−6M pyroxasulfone, liquid culture 14 to 17 days
Experimental: (§1) The transgenic cultured rice cells thus prepared were used for liquid culture in the presence of pyroxasulfone. Pyroxasulfone was added to the liquid medium as an acetone solution. The final acetone concentration was 0.1%. When liquid culture was carried out, cultured rice cells transformed with KLB-279 (a plasmid comprising Act1p (rice actin 1 promoter)::sGFP::NOSt incorporated into the MCS of PalSelect R-4) were designated as the control samples. Liquid culture was carried out as described below.
(§2) A bag of mixed salts for Murashige-Skoog medium (MS inorganic salts), 1 ml of 10 mg/ml thiamin hydrochloride, 1 ml of 5 mg/ml nicotinic acid, 1 ml of 10 mg/ml pyridoxine hydrochloride, 1 ml of 2 mg/ml glycine, 1 ml of 0.2 mg/ml 2,4-D, 30 g of sucrose, and 1 ml of 50 mg/ml myo-inositol were added into a 1-liter beaker, a pH was adjusted to 5.7, and the volume was precisely adjusted to 1,000 nil with the addition of distilled water, followed by autoclave. After 0.05 ml of pyroxasulfone was added to a 200-ml erlenmeyer flask containing 50 ml of the liquid medium, about 0.5 g of the control cultured rice cells proliferated in a solid medium of the same composition as described above further supplemented with 3 g of gellan gum and 0.25 μM BS or about 0.5 g of the transgenic cultured rice cells prepared as described above were added to the liquid medium, and culture was carried out for 14 to 17 days. After the completion of culture, the liquid medium was removed, and cultured rice cells were recovered.
(§3) One month after the transformation, cultured rice cells comprising the GST genes introduced therein were selected with the use of 0.25 μM bispyribac sodium (BS). Subsequently, the fresh cultured rice cells proliferated in the selection medium were mass-cultured in a conical beaker for approximately 1 month and then used for liquid culture in a pyroxasulfone-containing medium. When conducting liquid culture, the concentration was adjusted to 10^−7M or 10^−6M, so that pyroxasulfone would influence the fatty acid content in the cultured rice cells (Y. Tanetani et al., Pestic. Biochem. Physiol., 95, 47-55, 2009). […]
(§4) Fatty acid was extracted using undecenoic acid (C11:1) as an internal standard. As analytical standards, Supelco FAME mix containing C14:0, C16:0, C16:1, C18:0, C18:1, C18:2, C18:3, C20:0, C22:0, C22:1, and C24:0 and other fatty acid methyl esters (C11:1, C15:0, C20:1, and C26:0) were used, and calibration curves thereof were prepared, followed by quantification. […] Quantitative and qualitative analyses were carried out as methyl esters, although fatty acid methyl esters were converted into fatty acids at the time of quantitative analysis. […]

ZmM16901 = biological target: T1, ZmM16901 (Zea mays, UniProt P12653); conditions: cultured rice cells with ZmM16901 gene; 10^−7M or 10^−6M pyroxasulfone, liquid culture 14 to 17 days
T1 construct: expressed in transfected cells; host or cells: cultured rice cells (Agrobacterium EHA105, PalSelect R-4-GST)
Experimental: as §1, §2, §3, §4

ZmQ9ZP61 = conditions: cultured rice cells with ZmQ9ZP61 gene; 10^−7M or 10^−6M pyroxasulfone, liquid culture 14 to 17 days
Experimental: as §1, §2, §3, §4

ZmY12862 = conditions: cultured rice cells with ZmY12862 gene; 10^−7M or 10^−6M pyroxasulfone, liquid culture 14 to 17 days
Experimental: as §1, §2, §3, §4

Measured: pyroxasulfone metabolizing activity (C15:0 and VLCFA contents)

T1 sequence (P12653 whole entry): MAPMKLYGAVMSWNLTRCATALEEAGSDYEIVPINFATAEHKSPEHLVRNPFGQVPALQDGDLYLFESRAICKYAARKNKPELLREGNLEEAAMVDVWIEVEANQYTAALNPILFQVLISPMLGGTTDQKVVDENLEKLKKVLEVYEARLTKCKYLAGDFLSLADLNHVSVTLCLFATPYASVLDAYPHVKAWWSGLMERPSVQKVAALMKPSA

Cn1nc(C(F)(F)F)c(CS(=O)(=O)C2=NOC(C)(C)C2)c1OC(F)F [Pyroxasulfone, 3-[5-(difluoromethoxy)-1-methyl-3-(trifluoromethyl)pyrazol-4-ylmethylsulfonyl]-4,5-dihydro-5,5-dimethyl-1,2-oxazole]
no pyroxasulfone metabolizing activity: all assays above
